The source of these data is US9128097B2, “Method and kit for assessing viable cells” (ChemoMetec A/S, priority 2008, dated 2015).

Assay type in all cases: cell-based
Experiment [1] concerns Jurkat (JM) cells. Description: Staining of proliferating Jurkat cells with labelling agent and propidium iodide, fluorescence microscopy. Conditions: 10 μL agent (100 μg pr. mL DMSO) added to 90 μL cells, only exception PI positive cells. The procedure:
(§1) Materials and Methods. Jurkat (JM) cells were grown at 37° C. in a humidified air atmosphere with 5% CO2 in RPMI (Invitrogen, #61870) supplemented with 10% heat-inactivated fetal bovine serum (Invitrogen, #10108-165). 90 μL proliferating Jurkat cells (cell density 1.2×10^6, 99% viable determined using the NC-100 NucleoCounter system following the manufacturer's (ChemoMetec A/S) protocol) were added 10 μL NAM (N-(9-acridinyl)maleimide, Sigma, #01665, CAS no. 49759-20-8) dissolved in DMSO (100 μg NAM pr. mL DMSO) and mixed by pipetting. Cells were loaded into a NucleoCassette, containing the DNA stain propidium iodide (PI). The cells were investigated using an Olympus IX50 fluorescence microscope, and images were captured using a Lumenera CCD camera and in-house developed software. PI and NAM fluorescence were detected using, respectively, U-MWG2 (green long pass: 510-550 nm) and U-MNUA2 (UV band pass, 330-385 nm) filter cubes (Olympus).
as §1, with “1.0×10^6,” for “1.2×10^6,”, “(ChemoMetec)” for “(ChemoMetec A/S)”, “CPM (7-diethylamino-3-[4′-maleimidylphenyl]-4-methylcoumarin, Chemodex Ltd.,” for “NAM (N-(9-acridinyl)maleimide, Sigma, #01665,”, “76877-33-3)” for “49759-20-8)”, “CPM” for “NAM”
as §1, with “1.1×10^6, 98%” for “1.2×10^6, 99%”, “(ChemoMetec)” for “(ChemoMetec A/S)”, “PM (N-(1-Pyrenyl)maleimide, Sigma P7908” for “NAM (N-(9-acridinyl)maleimide, Sigma, #01665,”, “42189-56-0)” for “49759-20-8)”, “PM” for “NAM”, “Cells were loaded into a NucleoCassette, containing the DNA stain propidium iodide (PI).” left out
Materials and Methods. […] 90 μL proliferating Jurkat cells (cell density 1.1×10^6, 98% viable determined using the NC-100 NucleoCounter system following the manufacturer's (ChemoMetec) protocol) were added 10 μL CPI (7-diethylamino-3-((4′-(iodoacetyl)amino)phenyl)-4-methylcoumarin, Sigma 78264 CAS no. 76877-34-4) dissolved in DMSO (100 μg CPI pr. mL DMSO) and mixed by pipetting. […] The cells were investigated using an Olympus IX50 fluorescence microscope, and images were captured using a Lumenera CCD camera and in-house developed software. PI and CPI fluorescence were detected using, respectively, U-MWG2 (green long pass: 510-550 nm) and U-MNUA2 (UV band pass, 330-385 nm) filter cubes (Olympus). […]

Experiment [2] has as its system Jurkat (A3) cells. The experiment can be described thus: DACM / annexin V AF594 / SYTOX green staining of nocodazole treated Jurkat cells. The procedure:
Materials and Methods. Jurkat (A3) cells were grown in T flasks at 37° C. in a humidified air atmosphere with 5% CO2 in RPMI (Invitrogen, #61870) supplemented with 10% heat-inactivated fetal bovine serum (Invitrogen, #10108-165). In order of investigating the effect of an apoptosis-inducing drug on DACM staining, Jurkat cells were treated with nocodazole (0.5 μM) for 16 hours. Nocodazole treated and untreated control cells were harvested washed and stained with annexin V Alexa Fluor 594 (Invitrogen, #A13203) according to manufacturer's instructions. Then cells were stained with DACM (20 μg/mL) (N-(7-dimethylamino-4-methyl-3-coumarinyl)-maleimide, WAKO Pure Chemical Industries, CAS no. 55145-14-7) and the nonviable stain SYTOX green (0.3 μM) (Invitrogen, #S7020). Immediately after staining with DACM cells were loaded into a chamber slide. The cells were investigated using an Olympus IX50 fluorescence microscope, and images (40× magnification) of the Annexin V Alexa Fluor 594, DACM and SYTOX green stained cells were captured using a Lumenera CCD camera combined with the following filter cubes (Olympus); U-MWG2 (green long pass: 510-550 nm), U-MNUA2 (UV band pass, 330-385 nm) and U-MNIB3 (blue band pass: 470-495 nm). Cells were also investigated using an in-house developed fluorescence microscope system with 2× magnification.

Experiment [3] relates to Jurkat (A3) cells. Description: DACM staining of exponentially growing versus starved Jurkat cells. Conditions: viable cells (PI positive gated out); 2 days versus 10 days incubation. The procedure:
Materials and Methods. Jurkat (A3) cells were grown in T flasks at 37° C. in a humidified air atmosphere with 5% CO2 in RPMI (Invitrogen, #61870) supplemented with 10% heat-inactivated fetal bovine serum (Invitrogen, #10108-165). To investigate the effect of cell starvation on DACM staining, exponentially proliferating cells from a newly split culture (2 days incubation) were investigated along with cells from a stationary culture (10 days incubation). 1.8 mL proliferating newly split Jurkat cells (cell density 3×10^5, 98% viable) were spun down and resuspended in 95 μL RPMI media and added 5 μL of a mixture of DACM (N-(7-dimethylamino-4-methyl-3-coumarinyl)-maleimide, WAKO Pure Chemical Industries, CAS no. 55145-14-7, 400 μg DACM pr. mL), acridine orange (1.2 μg/mL) and propidium iodide (500 μg/mL) and mixed by pipetting. Immediately after staining cells were loaded into a chamber slide. Images were captured using an in-house developed fluorescence microscope system with a Lumenera CCD camera (2× magnification) and were analysed using in-house developed software.

Experiment [4] has as its system S. cerevisiae. The experiment can be described thus: DACM/PI staining of yeast, fluorescence microscopy. The conditions noted are these: 8 μg/ml DACM, no incubation. On the procedure:
(§2) Materials and Methods. S. pombe strain Eg328, h^90 smt-0 ura4-D18, (ATCC 90720; Styrkarsdottir U et al. Curr. Genet. 23: 184-186, 1993) was grown in a rotary shaker at 29° C. to a density of 1×10^7 cells/ml in EMM minimal medium (Moreno et al., Methods Enzym. 194: 795-823, 1991) supplemented with 10 mM of L-uridine (Sigma, U3750). S. cerevisiae wild strain was cultivated in YPD medium (Qbiogene, #4001-032) at 29° C. to a density of 5×10^7 cells/ml. S. pombe and S. cerevisiae cells were directly stained with 8 μg/ml DACM (N-(7-dimethylamino-4-methyl-3-coumarinyl)-maleimide, WAKO Pure Chemical Industries, CAS no. 55145-14-7 dissolved in DMSO) and 10 μg/ml propidium iodide (Applichem, #A2261.9010) prior to mounting on a microscope slide. Note: after addition of DACM and PI the cells were immediately analysed for fluorescence (no incubation). Olympus IX50 and NucleoCounter® NC3000™ was used for microscopy, and images were captured using a Lumenera CCD camera and in-house developed software. Propidium iodide and DCAM fluorescence were detected using the U-MWG2 and U-MNUA2 filter cubes of the Olympus microscope and filterset 5 and 1 of the NucleoCounter® NC-3000™.

In experiment [5] the test system is S. pombe. The experiment can be described thus: DACM/PI staining of yeast, fluorescence microscopy. The conditions noted are these: 8 μg/ml DACM, no incubation. The procedure:
as §2

The subject of experiment [6] is Jurkat cells. Description: JC-1 mitochondrial potential detection apoptosis assay. Conditions: nocodazole treated Jurkat cells. The source says: FIG. 22 The effect of the apoptotic drug nocodazole on the fluorescence intensity of stained Jurkat cells. 22A+22B) Fluorescence intensity of DACM stained untreated (22A) or nocodazole treated (22B) Jurkat cells. […] 22C+22D) Red vs. green fluorescence of JC-1 stained untreated (22C) and nocodazole treated (22D) Jurkat cells. The JC-1 stain is used for detecting apoptosis. JC-1 form red fluorescing aggregates in the mitochondria of healthy, non-apoptotic cells. In apoptotic cells JC-1 appears in its green monomeric, reduced form. […] This is in accordance with the results obtained using DACM to measure the thiol level; treatment with nocodazole causes a decrease in the fluorescence intensity of a subpopulation of cells.

Regarding `Cc1c(N2C(=O)C=CC2=O)c(=O)oc2cc(N(C)C)ccc12` [DACM, N-(7-dimethylamino-4-methyl-3-coumarinyl)-maleimide], in experiment [1], the “staining of cells (UV filter) versus PI positive cells” value is reported as “nearly all cells were stained by DACM”. Further, in experiment [2] (DACM 20 μg/mL), the “DACM fluorescence intensity of viable, non-apoptotic cells” value is listed as “highest fluorescence intensity”. The “DACM fluorescence intensity of nonviable cells” value in experiment [2] (SYTOX green positive cells, DACM 20 μg/mL) is recorded as “low fluorescence intensity”. Besides, the “DACM fluorescence intensity of apoptotic cells” value in experiment [2] (annexin V positive cells, DACM 20 μg/mL) is on record as “low fluorescence intensity”. The “DACM fluorescence intensity, healthy versus starved cells” value in experiment [3] is on record as “higher for healthy (exponential growing) Jurkat cells than the starved Jurkat cells”. In experiment [4], the “staining of non-viable PI positive cells” value was “stain very weakly with DACM” and the “staining of viable PI negative cells” value is listed as “stain brightly with DACM”. Moreover, in experiment [5], the “staining of non-viable PI positive cells” value is “stain very weakly with DACM” and the “staining of viable PI negative cells” value was “stain brightly with DACM”.
For the compound `COC(=O)Nc1nc2ccc(C(=O)c3cccs3)cc2[nH]1` [nocodazole], the “overall DACM fluorescence intensity (thiol level) of treated cells versus untreated” value in experiment [2] (nocodazole 0.5 μM for 16 hours) is on record as “lower than the overall fluorescence intensity of untreated Jurkat cells”. The “induction of apoptosis (mitochondrial depolarisation, JC-1 red/green fluorescence)” value in experiment [6] is “induces apoptosis (measured as depolarisation) in a cell subpopulation”.
